Source: patent US20110153302A1, “IDENTIFICATION OF DRUG EFFECTS ON SIGNALING PATHWAYS USING INTEGER LINEAR PROGRAMMING” (Massachusetts Institute of Technology, priority 2009, published 2011)
“Also recorded” adds a separate entry of the source.

Key:
HepG2 cells = test: Bead-based multiplexed (Luminex xMAP) measurement of 13 key phosphorylation events in cells treated with drugs and ligands; format: cell-based
Experimental: HepG2 cells were purchased from ATCC (Manassas, Va.), and seeded on 96-well plates coated with collagen type I-coated (BD Biosciences, Franklin Lakes, N.J.) at 30,000 cells/well in DME medium containing 10% Fetal Bovine Serum (FBS). The following morning, cells were starved for 4 hours and treated with inhibitors and/or drugs. Kinase inhibitors were used at concentrations sufficient to inhibit at least 95% the phosphorylation of the nominal target as determined by dose-response assays (presented in [17]). […] was chosen as the nominal target for Lapatinib, Erlotinib, and Gefitinib. The following saturated concentrations were used: p38 (PHA818637, 20 nM), MEK (PD325901, 100 nM) and cMET (JNJ38877605, 1 μM), PI3K (PI-103, 10 μM), Lapatinib at 3 uM [47], Erlotinib at 1 uM [47], Gefitinib at 3 uM [47], and Sorafenib at 3 uM (based on its inhibitory activity on ERK1/2 phosphorylation). Following incubation for 45 minutes with inhibitors and/or drugs cells were treated with saturated levels of 5 ligands: Tumor Necrosis Factor alpha (TNFα) at 100 ng/ml, Interleukin 1 alpha (IL1α) at 10 ng/ml, Insulin (INS) at 2 uM, Transforming Growth Factor (TGFα) at 100 ng/ml, and Hepatocytes Growth Factor (HGF) at 100 ng/ml. Each ligand was added alone or in pairs and cell lysates were collected at 0, 5, and 25 minutes following the cytokine stimulation. The 5 and 25 minutes lysates were mixed together in 1:1 ratio and the mixed lysate was measured as an indicator of the “average early signaling response”. The 5 and 25 minute time points were identified in a preliminary experiment as the optimal time points that maximally captured early phosphorylation activities.
(§1) From each lysate we measured 13 phosphorylation activities that we considered “key phosphorylation events” using a Luminex 200 system (Luminex Corp, Austin, Tex.). The 13-plex phospho-protein bead set from Bio-Rad was used to assay p70S6K (Thr421/Ser424), CREB (Ser133), p38 (Thr180/Tyr182), MEK1 (Ser217/Ser221), JNK (Thr183/Tyr185), HSP27 (Ser78), ERK1/2 (Thr202/Tyr204, Thr185/Tyr187), c-JUN (Ser63), IRS-1 (Ser636/Ser639), IκB-α (Ser32/Ser36), Histone H3 (Ser10), Akt (Ser473), and IR-β (Tyr1146). Data were normalized and plotted using with DataRail. For the construction of the dose response curve in FIG. 3i, HepG2 were starved for 4 hours and then incubated with Gefitinib (from 20 uM down to 27 nM-3 fold dilution) for 45 minutes followed by incubation with IL1α at 10 ng/ml final concentration for 30 minutes. Duplicate lysates were analyzed using the c-JUN (Ser63) beads in the Luminex 200 system.
High-throughput bead-based ELISA-type experiments using xMAP technology (Luminex, Tex., USA) are performed as briefly described in the Materials and Methods section and in [17]. We create two datasets: one for the construction of cell-type specific topology and another for the identification of the mechanisms of drug actions. […] For the purpose of this paper, we refer to “inhibitors” as the compounds for which we know the target and we use them in a concentration capable to block ˜95% of the downstream protein. Conversely, we refer to “drugs” as the compounds for which we assume no a-priori knowledge of their target. For each combination of cytokine and drug/inhibitor we collect cell lysates at 5 and 25 minutes. The two time points are pooled together in 1:1 ratio and the mixed lysates are used as an indicator of the “average early signaling response”. For each treatment we measure 13 protein phosphorylations that we consider “key protein activities” (raw data in FIG. 4). The key phosphorylation signals (listed in Materials and Methods) are chosen based on the availability of the reagents and quality controls performed at the early phases of the experimental setup. […]

HepG2 specific topology = test: Drug-induced topology alterations: ILP fit of the HepG2 specific topology to drug-induced phosphoprotein data; conditions: for Drug effect on downstream reactions of the TGFα branch (TGFα→GRB2→SOS→RAS→PI3K and RAS→RAF1→MEK1/2→ERK1/2) / Drug effect on the JNK→c-JUN branch: reactions removed from HepG2 topology by ILP, Gefitinib 3 uM; for Effect on c-Jun signaling: summary statement in the personalized medicine section
Source text: Here, we describe how the Boolean model described in [18] can be reformulated as an ILP. Note that such a transformation was recently performed for a different problem, namely the satisfiability, by. A pathway is defined as a set of reactions i=1, . . . , nr and species j=1, . . . , ns. Each reaction has three corresponding index sets, namely the index set of signaling molecules Ri, inhibitors Ii, and “products” Pi (“product” can also correspond to the phosphorylation level of the protein). These sets are all subsets of the species index set (Ri,Ii,Pi⊂{1, . . . , ns}). Typically, these subsets have very small cardinality (few species), e.g., |Ri|=0,1,2;|Ii|=0,1;|Pi|=1,2;|Ri|+|Ii|=1,2. A reaction takes place if and only if all reagents and no inhibitors are present. If a reaction takes place, all products are formed. Note that reactions without products as well as reactions with neither reagents nor inhibitors will be excluded here.
While typically the set of species is known, the set of reactions is not known. Rather, only a superset of potential reactions is postulated. The goal of the proposed formulation is to find an optimal (in some sense) set of reactions out of such a superset. To that extent binary variables yi are introduced, indicating if a reaction is possible or not (yi=0 connection not present, yi=1 connection present).
A set of experiments is performed, indexed by the superscript k=1, . . . , ne. In each experiment a subset of species is introduced to the system and another subset is excluded from the system. These are summarized by the index sets M^k,1 and M^k,0 respectively (two for each experiment). In the proposed formulation, constants are introduced for all such species, respectively xj^k=1 and xj^k=0. […] In the experiments a third subset of the species is measured (index set M^k,2) and for the remaining species no information is available. In the proposed formulation for each of the experiments and each such species a binary decision variable xj^kε{0,1} is introduced indicating if the species j is present (xj^k=1) or not (xj^k=0) in the experiment k according to the model predictions. […] This has some computational advantages.
In the present study, our ILP formulation was utilized in two different circumstances. For the creation of the cell-type specific pathway using combinations of inhibitors and stimuli our ILP formulation included 27887 constraints and 9732 variables. For each drug case, where the reduced and optimized pathway was utilized, we had 2477 constraints and 947 variables.
For the identification of the drug effects we make use of the second dataset in HepG2s where drugs are applied together with the same set of ligands. In this case, the ILP formulation is being used with the HepG2 specific topology (topology obtained from the previous step) and not the generic map.

JNK1/2 kinases = conditions: kinase profiles, ref [32]; cited from earlier work
p38α = p38α (Homo sapiens, UniProt Q16539); conditions: refs [32],[45]; cited from earlier work
RAF/MEK/ERK pathway = conditions: human tumor cell lines, ref [33]; cited from earlier work
c-JUN (Ser63) = test: Gefitinib dose response of c-JUN (Ser63) signal in HepG2 after IL1α (FIG. 3i); format: cell-based; conditions: Gefitinib 20 uM down to 27 nM, 45 min, IL1α 10 ng/ml, 30 min, linear fit
Source text: as §1

p38α, sequence (Q16539 whole entry): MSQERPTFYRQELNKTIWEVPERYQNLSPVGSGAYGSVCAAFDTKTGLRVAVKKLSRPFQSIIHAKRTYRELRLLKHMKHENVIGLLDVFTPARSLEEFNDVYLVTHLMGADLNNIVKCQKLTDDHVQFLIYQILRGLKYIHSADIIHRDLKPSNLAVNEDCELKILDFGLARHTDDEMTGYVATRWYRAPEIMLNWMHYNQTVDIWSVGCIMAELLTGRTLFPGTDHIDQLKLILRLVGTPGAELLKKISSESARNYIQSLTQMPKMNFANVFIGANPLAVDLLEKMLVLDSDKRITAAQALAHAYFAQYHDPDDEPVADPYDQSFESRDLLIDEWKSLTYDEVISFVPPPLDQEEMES

| SMILES | TGFα induced MEK1/2, ERK1/2, and AKT phosphosignals (HepG2 cells; Lapatinib 3 uM, 45 min before TGFα 100 ng/ml, early response (5 and 25 min), FIG. 3e) | Activation of AKT by the HGF and INS path (HepG2 cells; Lapatinib 3 uM, FIG. 3e) | Drug effect on the PI3K→...→AKT branch (HepG2 specific topology; HepG2 topology, ILP, Lapatinib 3 uM) | Drug effect on downstream reactions of the TGFα branch (TGFα→GRB2→SOS→RAS→PI3K and RAS→RAF1→MEK1/2→ERK1/2) (HepG2 specific topology; Lapatinib 3 uM, Erlotinib 1 uM) | Effect on c-Jun signaling (HepG2 specific topology) | HSP27 phosphorylation upon IL1α treatment (HepG2 cells; Sorafenib 3 uM, FIG. 3h) | MEK1 phosphorylation (HepG2 cells; Sorafenib 3 uM, FIG. 3h) | Affinity for the directly upstream JNK1/2 kinases (JNK1/2 kinases) | Drug effect on the p38 path (HepG2 specific topology; HepG2 topology, ILP, Sorafenib 3 uM) | Drug effect on the RAF→ERK1/2 reaction (HepG2 specific topology; HepG2 topology, network optimization, Sorafenib 3 uM) | Drug effect on the JNK→c-JUN branch (HepG2 specific topology; Erlotinib 1 uM, Sorafenib 3 uM) | Target affinity to p38α (p38α) | Inhibition of activation of the RAF/MEK/ERK pathway (RAF/MEK/ERK pathway) | Activation of cJUN signal induced by the IL1α stimuli, dose response (c-JUN (Ser63)) | IL1α- and (IL1α+TGFα)-induced cJUN activity (HepG2 cells; Gefitinib 3 uM, IL1α 10 ng/ml, FIG. 3f) | IκB-α signals upon IL1α and TNFα stimuli (HepG2 cells; Erlotinib 1 uM, FIG. 4) | Drug effect on the TRAF6→MAP3k7 reaction (HepG2 specific topology; HepG2 topology, ILP, Erlotinib 1 uM) |
| --- | --- | --- | --- | --- | --- | --- | --- | --- | --- | --- | --- | --- | --- | --- | --- | --- | --- |
| CS(=O)(=O)CCNCc1ccc(-c2ccc3ncnc(Nc4ccc(OCc5cccc(F)c5)c(Cl)c4)c3c2)o1 [Lapatinib] | blocks | cannot be blocked | not removed | complete removal of the downstream reactions of the TGFα branch | do not affect c-Jun signaling | – | – | – | – | – | – | – | – | – | – | – | – |
| CNC(=O)c1cc(Oc2ccc(NC(=O)Nc3ccc(Cl)c(C(F)(F)F)c3)cc2)ccn1 [Sorafenib] | – | – | – | – | – | complete HSP27 inhibition | reduces but does not block | no medium or high affinity | affects the p38 path; also recorded: inhibition of the pathway downstream of p38 | does not remove the RAF→ERK1/2 reaction | blocks the JNK→c-JUN branch; also recorded: removal of the JNK→cJUN reaction | target affinity | does not inhibit activation of the RAF/MEK/ERK pathway in all human tumor cell lines | – | – | – | – |
| COc1cc2ncnc(Nc3ccc(F)c(Cl)c3)c2cc1OCCCN1CCOCC1 [Gefitinib] | – | – | – | alters the topology in a very similar pattern as Lapatinib | affects c-Jun signaling as well as EGFR signaling | – | – | no medium or high affinity | – | – | removal of the JNK→c-JUN branch; also recorded: removal of the JNK→cJUN reaction | – | – | can reduce the activation of cJUN signal; also recorded: does not follow a typical dose-response curve; also recorded: reduces cJUN activation | potent inhibition; also recorded: significant reduction of the cJUN activity; also recorded: previously unknown inhibition of cJUN in the IL1α pathway; also recorded: inhibits signaling downstream the Interleukin-1alpha (IL1α) pathway | – | – |
| C#Cc1cccc(Nc2ncnc3cc(OCCOC)c(OCCOC)cc23)c1 [Erlotinib] | – | – | – | has the same effects as Gefitinib | do not affect c-Jun signaling | – | – | no medium or high affinity | – | – | has the same effects as Gefitinib; also recorded: removal of the JNK→cJUN reaction | – | – | – | – | inhibited in an IL1α-dependent but TNFα-independent manner | shows an effect in the TRAF6→MAP3k7 reaction |
